Measured values taken from publication PMC11551755, “Structure-based discovery of first inhibitors targeting the helicase activity of human PIF1” (Nucleic Acids Research, 2024).

Target: T1, hPIF1HD V258L (Homo sapiens, UniProt Q9H611, V258L)
T1 construct: The human PIF1 helicase domain and mutants (hPIF1HD, residues 206–620); hexa-histidine tag (N, cleaved yes); made in house; host or cells: ArcticExpress BL21(DE3) E. coli (Agilent Technologies)
T1 sequence (Q9H611 206-620 V258L): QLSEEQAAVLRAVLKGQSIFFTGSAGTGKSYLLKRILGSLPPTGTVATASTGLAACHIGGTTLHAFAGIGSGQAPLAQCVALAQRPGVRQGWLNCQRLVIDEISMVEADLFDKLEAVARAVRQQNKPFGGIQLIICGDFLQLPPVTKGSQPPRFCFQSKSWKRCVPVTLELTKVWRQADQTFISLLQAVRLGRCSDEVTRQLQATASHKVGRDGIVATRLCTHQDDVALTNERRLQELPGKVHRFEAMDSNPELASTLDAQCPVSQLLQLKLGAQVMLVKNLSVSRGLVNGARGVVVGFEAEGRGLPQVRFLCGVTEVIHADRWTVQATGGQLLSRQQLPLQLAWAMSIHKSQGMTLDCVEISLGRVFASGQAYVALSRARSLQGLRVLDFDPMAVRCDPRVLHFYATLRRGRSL
Assay: ssDNA d(T)55 binding assay (EMSA), hPIF1HD V258L variant
Conditions: 0.25 nM d(T)55, 2 nM protein, 5 mM AMP-PNP, 0.0078–2 mM compound; read-out: IC50 for inhibition of ssDNA binding, V258L
Experimental: DNA binding of hPIF1HD was assayed using a ^32P-5′ end-labelled oligo d(T)55 substrate (0.25 nM), under the same buffer conditions described for helicase assays, but with AMP-PNP instead of ATP. Reaction products were resolved on 5% poly-acrylamide gels (29:1 acrylamide:bis-acrylamide) using 0.25× TBE running buffer ([19],[28]). Gels were processed and reaction products quantified by phosphorimaging and IC50 values determined as described above.
In hPIF1HD/AMP-PNP/1 there are no direct hydrogen bonds between amino acid side chains and 1, however, Val 258 from domain 1A is making van der Waals interaction (<3.8 Å) with the amide group at one end of the molecule (Figure 1). From the structural data, we reasoned that substitution of the Val 258 with alanine (V258A) would increase the size of the binding pocket and its accessibility to ligand, while substitution with leucine (V258L) would decrease pocket size and possibly instigate a clash with Lys 556, disrupting interactions with compound 1 or derivatives. Accordingly, we purified hPIF1HD V258A and V258L variant forms and analysed ssDNA d(T)55 binding in the presence of SMIs, using EMSA as above.
Supplementary Figure 12. hPIF1HD variants V258A and V258L ssDNA binding IC50 determination by EMSA with selected SMIs. All binding reactions were assembled under helicase reaction conditions but with 0.25 nM radiolabelled oligo d(T)55, and 5 mM AMP-PNP. (A) DNA binding activity of wild type and mutant proteins was assessed by EMSA without inhibitors. […] 1D: Wild type (WT), V258A and V258L, not determined. 2: WT, 224 ± […]; V258A, 103 ± 31 µM; V258L, 304 ± 88 µM. 5: WT, 198 ± 54 µM; V258A, 79.2 ± 27 µM; V258L, 414 ± 45 µM. 6: WT, 722 ± 194 µM; V258A, 295 ± 116 µM; V258L, 1010 ± 282 µM. 10: WT, 224 ±59 µM; V258A, 152 ± 42 µM; V258L, 378 ± 99 µM. 11: WT, 284 ± 110 µM; V258A, 151 ± 51 µM; V258L, 551 ± 215 µM.

Row | Compound | IC50 [µM]
1 | CC(=O)c1ccc(-c2csc(N)n2)cc1 [Compound 2] | 304 ± 88
2 | N#Cc1ccc(-c2csc(N)n2)cc1 [Compound 5] | 414 ± 45
3 | Nc1nc(-c2ccc(C(=O)c3ccccc3)cc2)cs1 [Compound 6] | 1010 ± 282
4 | CC(=O)Nc1ccc(-c2csc(N)n2)cc1-c1ccc(C)cc1 [Compound 10] | 378 ± 99
5 | CC(=O)Nc1ccc(-c2csc(N)n2)cc1C1=CCNCC1 [Compound 11] | 551 ± 215
